Laboratory results from patent US20260306421A1, “SYSTEMS AND METHODS FOR TRANSDERMAN PATCH DELIVERY” (VITAMAX PATCH WHOLESALER LLC, priority 2022, published 2026).

Assay: Franz cell porcine skin permeation and deposition of cholecalciferol and cholecalciferol phosphate disodium from PG solutions
Format: in vitro ADME
Protocol: In order to assess the effect of adding phosphate to vitamin D chemical structure on the penetration of vitamin D through the skin porcine skin permeation studies were performed. Using the data from the pre-formulation studies solutions of cholecalciferol and cholecalciferol phosphate disodium, were prepared. […] The developed HPLC methods were used for quantification.
To study if the addition of the phosphate to cholecalciferol facilitated enhanced transdermal permeation, donor solutions were prepared by adding 2.5 mg/mL of cholecalciferol or cholecalciferol phosphate disodium in 100% PG. […] After 24 h, the receiver fluid was collected and analysed by HPLC methods. […]
Following homogenising solution with epidermis and dermis for 1 min by Ultra Turrax, solutions were filtered through 0.2 μm syringe filters of each bottle was collected and analysed by the HPLC method. The amount of cholecalciferol and cholecalciferol phosphate disodium on the surface of the skin, deposited in the SC, epidermis, dermis, and passed into the receiver fluid was determined. The percentage of mass recovery per cm^2 of skin was calculated, and the drug deposition profile could be obtained.

## cholecalciferol phosphate disodium
p<0.05, ANOVA
  deposition compared with cholecalciferol in each skin layer: significantly higher
Propylene glycol solution
  vitamin D delivered into the skin compared to cholecalciferol: 5 times
